# Patent EP4559923A1, “ANTIHISTAMINE COMPOUND, AND PREPARATION METHOD THEREFOR AND USE THEREOF” (HC Synthetic Pharmaceutical Co., Ltd., priority 2022, dated 2024)
# How the values were obtained:
# [1] = Muscle tone of isolated ileal smooth muscle of guinea pigs contracted with histamine; conditions: Table 4; 3 minutes after adding 0.05 mL compound at maximum histamine contraction; x±s, n = 8
# Description: (§1) The guinea pig was knocked unconscious with a wooden stick, and the abdomen was immediately dissected to separate the ileum about 15 cm in length. The contents of the intestinal segment were flushed with Tyrode's solution and placed in Tyrode's solution at a constant temperature of 37°C for later use, and oxygen was supplied simultaneously. The experimental intestinal tract (1 cm in length) was cut and placed into 20 ml of Tyrode's solution at a constant temperature of 37°C with a continuous oxygen supply. One end of the intestine was fixed on the ventilation hook and the other end was connected to the muscle tone transducer and led to the computer interface. The muscle tone value of the ileal smooth muscle was recorded with a BL system. The experiment was carried out after the intestinal segment contraction became stable.
# (§2) After the ileal peristalsis curve stabilized, the tone values before adding the compound were recorded, and then 0.05 mL of histamine was added. […] The operation was repeated 8 times. The antispasmodic percentage was calculated using the following equation. Antispasmodic percentage; = (Tone value after adding histamine−Tone value after adding subject compound)/(Tone value after adding histamine) × 100% [formula]
# histamine = assay: as above; conditions: Table 4, x±s, n = 8; for Smooth muscle tone (g) After addition of histamine: after 0.05 mL of histamine, before compound; for Smooth muscle tone (g) Before administration: before histamine and compound; for Antispasmodic percentage (%): relative to tone after adding histamine, 3 min
# Description: as §1, §2
# histamine-induced asthma = assay: Antiasthmatic effect on histamine-induced asthma in guinea pigs (latency period); type: in vivo; conditions: X±s, n = 5; for Post-administration latency period: 1 mg/kg oral gavage, sixty minutes after administration, histamine hydrochloride spray, no asthma within 8 minutes counted as 8 minutes; for Pre-administration latency period: baseline before dosing, histamine hydrochloride spray 0.8 mg/mL for 40 seconds
# Description: The guinea pigs were placed in a polymethyl methacrylate bell jar and a histamine hydrochloride solution was sprayed ultrasonically (0.8 mg/mL) for 40 seconds. The time point at which the guinea pigs developed asthma was recorded. The time of convulsion and fall was taken as the latency period. Guinea pigs with a latency period exceeding 180 seconds were not selected. […] The guinea pigs were administered by oral gavage at a dose of 2 mL/kg·bw. Sixty minutes after the administration, the guinea pigs were placed in bell jars, and histamine hydrochloride solution was sprayed under the same conditions as in the previous selection. The latency period for the onset of asthma was recorded. […] The results were processed statistically.
# [2] = system: isolated ileal smooth muscle; assay: Muscle tone of isolated ileal smooth muscle of guinea pigs, compound alone; conditions: Table 3, no histamine, X±s, n = 8; for Smooth muscle tone (g) After administration: 5 minutes after adding the drug; for Smooth muscle tone (g) Before administration: before adding the drug; for Antispasmodic percentage (%): relative to tone before adding compound, 5 min
# Description: as §1
# After the ileum contraction curve stabilized, the tone values before adding the drug were recorded, then the drug or DMSO was added, and the average tone value of the ileum contraction curve at that point was recorded 5 minutes later. The operation was repeated 8 times. The antispasmodic percentage was calculated according to the following formula. Antispasmodic percentage =; (Tone value before adding subject compound−Tone value after adding subject compound)/(Tone value before adding subject compound) × 100% [formula]
smiles,measurement,setting,value
O=P(O)(O)OCN1CCC(=C2c3ccc(Cl)cc3CCc3cccnc32)CC1 [Compound III-1],Smooth muscle tone (g) After administration,[1],1.12 ± 0.25 g
same,Smooth muscle tone (g) After addition of histamine,histamine,3.44 ± 1.10 g
same,Smooth muscle tone (g) Before administration,histamine,1.81 ± 0.19 g
same,Antispasmodic percentage (%),histamine,67.44±15.23%
same,Post-administration latency period,histamine-induced asthma,388.39 ± 53.23 s
same,Pre-administration latency period,histamine-induced asthma,99.34 ± 49.57 s
same,Smooth muscle tone (g) After administration,[2],1.10 ± 0.22 g
same,Smooth muscle tone (g) Before administration,[2],1.74 ± 0.19 g
same,Antispasmodic percentage (%),[2],36.78±18.11%
O=P(O)(O)OCN1CCC(=C2c3ccc(F)cc3CCc3cccnc32)CC1 [Compound III-2],Smooth muscle tone (g) After administration,[1],1.10 ± 0.19 g
same,Smooth muscle tone (g) After addition of histamine,histamine,3.40 ± 0.99 g
same,Smooth muscle tone (g) Before administration,histamine,1.75 ± 0.16 g
same,Antispasmodic percentage (%),histamine,67.65±17.99%
same,Post-administration latency period,histamine-induced asthma,367.77 ± 50.21 s
same,Pre-administration latency period,histamine-induced asthma,98.81 ± 50.32 s
same,Smooth muscle tone (g) After administration,[2],1.15 ± 0.20 g
same,Smooth muscle tone (g) Before administration,[2],1.72 ± 0.23 g
same,Antispasmodic percentage (%),[2],33.14±15.19%
O=P(O)(O)OCN1CCC(=C2c3ccc(Br)cc3CCc3cccnc32)CC1 [Compound III-3],Smooth muscle tone (g) After addition of histamine,histamine,3.50 ± 1.19 g
same,Antispasmodic percentage (%),histamine,66.28±16.30%
same,Antispasmodic percentage (%),[2],29.82±18.20%
O=P(O)(O)OCCN1CCC(=C2c3ccc(Cl)cc3CCc3cccnc32)CC1 [Compound III-4],Smooth muscle tone (g) After administration,[1],1.21 ± 0.20 g
same,Smooth muscle tone (g) After addition of histamine,histamine,3.48 ± 0.98 g
same,Smooth muscle tone (g) Before administration,histamine,1.75 ± 0.18 g
same,Antispasmodic percentage (%),histamine,65.23±19.91%
same,Post-administration latency period,histamine-induced asthma,366.40 ± 50.23 s
same,Pre-administration latency period,histamine-induced asthma,97.99 ± 50.18 s
same,Smooth muscle tone (g) After administration,[2],1.17 ± 0.21 g
same,Smooth muscle tone (g) Before administration,[2],1.70 ± 0.20 g
same,Antispasmodic percentage (%),[2],31.17±20.11%
O=P(O)(O)OCCN1CCC(=C2c3ccc(F)cc3CCc3cccnc32)CC1 [Compound III-5],Smooth muscle tone (g) After administration,[1],1.17 ± 0.23 g
same,Smooth muscle tone (g) After addition of histamine,histamine,3.40 ± 0.83 g
same,Smooth muscle tone (g) Before administration,histamine,1.79 ± 0.20 g
same,Antispasmodic percentage (%),histamine,65.58±20.01%
same,Post-administration latency period,histamine-induced asthma,371.19 ± 44.59 s
same,Pre-administration latency period,histamine-induced asthma,100.10 ± 43.29 s
same,Smooth muscle tone (g) After administration,[2],1.18 ± 0.22 g
same,Smooth muscle tone (g) Before administration,[2],1.73 ± 0.21 g
same,Antispasmodic percentage (%),[2],31.79±16.94%
O=P(O)(O)OCCN1CCC(=C2c3ccc(Br)cc3CCc3cccnc32)CC1 [Compound III-6],Smooth muscle tone (g) After administration,[1],1.20 ± 0.20 g
same,Smooth muscle tone (g) After addition of histamine,histamine,3.47 ± 0.90 g
same,Smooth muscle tone (g) Before administration,histamine,1.83 ± 0.18 g
same,Antispasmodic percentage (%),histamine,65.42±17.83%
same,Post-administration latency period,histamine-induced asthma,373.29 ± 50.22 s
same,Pre-administration latency period,histamine-induced asthma,95.26 ± 48.88 s
same,Smooth muscle tone (g) After administration,[2],1.16 ± 0.27 g
same,Smooth muscle tone (g) Before administration,[2],1.72 ± 0.20 g
same,Antispasmodic percentage (%),[2],32.56±17.27%
O=P(O)(O)OCCCN1CCC(=C2c3ccc(F)cc3CCc3cccnc32)CC1 [Compound III-8],Smooth muscle tone (g) After administration,[1],1.16 ± 0.25 g
same,Antispasmodic percentage (%),histamine,66.47±18.83%
same,Smooth muscle tone (g) After administration,[2],1.14 ± 0.23 g
same,Antispasmodic percentage (%),[2],33.72±19.01%
O=P(O)(O)OCCCN1CCC(=C2c3ccc(Br)cc3CCc3cccnc32)CC1 [Compound III-9],Smooth muscle tone (g) After administration,[1],1.14 ± 0.26 g
same,Antispasmodic percentage (%),histamine,67.33±19.34%
same,Post-administration latency period,histamine-induced asthma,362.84 ± 53.77 s
same,Smooth muscle tone (g) After administration,[2],1.18 ± 0.25 g
same,Antispasmodic percentage (%),[2],30.59±20.02%
O=P(O)(O)OCCCCN1CCC(=C2c3ccc(F)cc3CCc3cccnc32)CC1 [Compound III-11],Smooth muscle tone (g) After administration,[1],1.16 ± 0.20 g
same,Antispasmodic percentage (%),histamine,66.37±17.33%
same,Post-administration latency period,histamine-induced asthma,373.33 ± 50.81 s
same,Smooth muscle tone (g) After administration,[2],1.17 ± 0.22 g
O=P(O)(O)OCCCCN1CCC(=C2c3ccc(Br)cc3CCc3cccnc32)CC1 [Compound III-12],Smooth muscle tone (g) After administration,[1],1.21 ± 0.23 g
same,Smooth muscle tone (g) After addition of histamine,histamine,3.45 ± 0.94 g
same,Smooth muscle tone (g) Before administration,histamine,1.82 ± 0.21 g
same,Antispasmodic percentage (%),histamine,64.92±17.49%
same,Post-administration latency period,histamine-induced asthma,359.80 ± 51.47 s
same,Pre-administration latency period,histamine-induced asthma,99.91 ± 49.45 s
same,Smooth muscle tone (g) After administration,[2],1.25 ± 0.21 g
same,Smooth muscle tone (g) Before administration,[2],1.74 ± 0.23 g
same,Antispasmodic percentage (%),[2],28.16±21.10%
O=P(O)(O)OCCCCCN1CCC(=C2c3ccc(Br)cc3CCc3cccnc32)CC1 [Compound III-15],Smooth muscle tone (g) After administration,[1],1.17 ± 0.23 g
same,Smooth muscle tone (g) After addition of histamine,histamine,3.40 ± 0.89 g
same,Smooth muscle tone (g) Before administration,histamine,1.80 ± 0.20 g
same,Antispasmodic percentage (%),histamine,65.59±18.88%
same,Post-administration latency period,histamine-induced asthma,359.61 ± 50.22 s
same,Pre-administration latency period,histamine-induced asthma,99.11 ± 51.09 s
same,Smooth muscle tone (g) After administration,[2],1.13 ± 0.20 g
same,Smooth muscle tone (g) Before administration,[2],1.74 ± 0.22 g
same,Antispasmodic percentage (%),[2],35.05±18.37%
O=P(O)(O)OCOCCN1CCC(=C2c3ccc(Cl)cc3CCc3cccnc32)CC1 [Compound III-16],Smooth muscle tone (g) After administration,[1],1.18 ± 0.25 g
same,Smooth muscle tone (g) After addition of histamine,histamine,3.42 ± 0.92 g
same,Smooth muscle tone (g) Before administration,histamine,1.83 ± 0.21 g
same,Antispasmodic percentage (%),histamine,65.49±19.23%
same,Post-administration latency period,histamine-induced asthma,363.23 ± 50.55 s
same,Pre-administration latency period,histamine-induced asthma,95.92 ± 50.22 s
same,Smooth muscle tone (g) After administration,[2],1.15 ± 0.24 g
same,Smooth muscle tone (g) Before administration,[2],1.72 ± 0.20 g
same,Antispasmodic percentage (%),[2],33.14±18.54%
O=P(O)(O)OCOCCCN1CCC(=C2c3ccc(Cl)cc3CCc3cccnc32)CC1 [Compound III-17],Smooth muscle tone (g) After administration,[1],1.19 ± 0.29 g
same,Smooth muscle tone (g) After addition of histamine,histamine,3.41 ± 0.84 g
same,Smooth muscle tone (g) Before administration,histamine,1.83 ± 0.25 g
same,Antispasmodic percentage (%),histamine,65.10±19.10%
same,Post-administration latency period,histamine-induced asthma,360.28 ± 51.00 s
same,Pre-administration latency period,histamine-induced asthma,96.93 ± 53.19 s
same,Smooth muscle tone (g) After administration,[2],1.14 ± 0.28 g
same,Smooth muscle tone (g) Before administration,[2],1.71 ± 0.23 g
same,Antispasmodic percentage (%),[2],33.33±19.10%
O=P(O)(O)OCOCCCCCN1CCC(=C2c3ccc(Cl)cc3CCc3cccnc32)CC1 [Compound III-19],Smooth muscle tone (g) After administration,[1],1.18 ± 0.28 g
same,Smooth muscle tone (g) After addition of histamine,histamine,3.43 ± 0.94 g
same,Smooth muscle tone (g) Before administration,histamine,1.82 ± 0.21 g
same,Antispasmodic percentage (%),histamine,65.59±18.97%
same,Post-administration latency period,histamine-induced asthma,355.71 ± 50.33 s
same,Pre-administration latency period,histamine-induced asthma,98.46 ± 52.04 s
same,Smooth muscle tone (g) After administration,[2],1.15 ± 0.24 g
same,Smooth muscle tone (g) Before administration,[2],1.72 ± 0.25 g
same,Antispasmodic percentage (%),[2],33.13±19.91%
O=P(O)(O)OCN1CCC(=C2c3ccc(Cl)cc3CCc3cccnc32)CC1 [Compound IV-1],Smooth muscle tone (g) After administration,[1],1.20 ± 0.23 g
same,Antispasmodic percentage (%),histamine,65.12±19.01%
same,Post-administration latency period,histamine-induced asthma,362.39 ± 48.40 s
same,Smooth muscle tone (g) After administration,[2],1.18 ± 0.21 g
same,Antispasmodic percentage (%),[2],30.99±19.20%
O=P(O)(O)OCOCCCCN1CCC(=C2c3ccc(Cl)cc3CCc3cccnc32)CC1 [Compound IV-10],Smooth muscle tone (g) After administration,[1],1.20 ± 0.27 g
same,Antispasmodic percentage (%),histamine,65.31±19.57%
same,Post-administration latency period,histamine-induced asthma,365.28 ± 52.09 s
same,Smooth muscle tone (g) After administration,[2],1.19 ± 0.24 g
same,Antispasmodic percentage (%),[2],30.41±20.04%
O=P(O)(O)OCOCCCCCN1CCC(=C2c3ccc(Cl)cc3CCc3cccnc32)CC1 [Compound IV-11],Smooth muscle tone (g) After administration,[1],1.18 ± 0.28 g
same,Antispasmodic percentage (%),histamine,65.89±19.39%
same,Post-administration latency period,histamine-induced asthma,364.85 ± 51.11 s
same,Smooth muscle tone (g) After administration,[2],1.18 ± 0.31 g
same,Antispasmodic percentage (%),[2],32.57±19.31%
